Test [1] relates to Mycobacterium tuberculosis. Description: Antimycobacterial activity against Mycobacterium tuberculosis H37Ra after 7 days by alamar blue dye assay. The format is functional. Conditions: 168 h.
A further test relates to HeLa. Description: Cytotoxicity against human HeLa cells after 72 hrs by CCK8 assay. In kind it is functional, cell-based. (In general: Tetrazolium dyes change colour on reduction, which living cells bring about.)
In the next test the test system is K562. Briefly: Cytotoxicity against human K562 cells after 72 hrs by CCK8 assay. The format is functional, cell-based. Conditions: K562, 72 h.
Another test relates to U-937. Briefly: Cytotoxicity against human U937 cells after 72 hrs by CCK8 assay. In kind it is functional, cell-based. To be noted: U-937, 72 h.
For another test, the system named is DU-145. Description: Cytotoxicity against human DU145 cells after 72 hrs by CCK8 assay. To be noted: DU-145, 72 h. In kind it is functional, cell-based.
A further test concerns MOLT-4. Briefly: Cytotoxicity against human MOLT4 cells after 72 hrs by CCK8 assay. In kind it is functional, cell-based. Conditions: MOLT-4, 72 h.
The next test concerns MCF7. Briefly: Cytotoxicity against human MCF7 cells after 72 hrs by CCK8 assay. The format is functional, cell-based. Conditions: MCF7, 72 h.
Another test relates to A549. Briefly: Cytotoxicity against human A549 cells after 72 hrs by CCK8 assay. The format is functional, cell-based. Conditions: A549, 72 h.
Test [2] has as its system Influenza A virus. Briefly: Antiviral activity against Influenza A virus H3N2 infected in MDCK cells assessed as protection against virus-induced cytopathic effect after 48 hrs by crystal violet staining. In kind it is functional, organism-based. On the technique in general: Damage to the host cells serves as the signal in cytopathic effect assays.
The subject of a further test is NCI-H1975. Briefly: Cytotoxicity against human NCI-H1975 cells after 72 hrs by CCK8 assay. Conditions: NCI-H1975, 72 h. The format is functional, cell-based.
Test [3] in a line: Cytotoxicity against human SGC7901 cells after 72 hrs by CCK8 assay. In kind it is functional, cell-based. Conditions: SGC-7901, 72 h.
The test system of the next test is HL-60. Description: Cytotoxicity against human HL60 cells after 72 hrs by CCK8 assay. In kind it is functional, cell-based. Conditions: HL-60, 72 h.
In test [4] the test system is Influenza A virus. Description: Antiviral activity against Influenza A virus H1N1 infected in MDCK cells assessed as protection against virus-induced cytopathic effect after 48 hrs by crystal violet staining. The format is functional, organism-based.

Converted amounts (≈) assume the structure as drawn.

In general, MIC refers to the smallest concentration in the dilution series that meets the test's criterion for growth inhibition. The low end stands for a more susceptible organism, the high end for a less susceptible organism. One may read the IC50 as the concentration needed to halve the response being measured.

For the compound `NNC(=O)c1ccncc1` [ISONIAZID], in test [1], the MIC is 2 µM (≈ 0.274 µg/mL).

On to `C=C1C(=O)O[C@H]2C[C@@]3(C)O[C@@H]3CC[C@@]3(C)O[C@@H]3C[C@H]12`, for which the half-inhibitory concentration (IC50) in the test with HeLa was determined as 1000 nM; in the test on K562, 1700 nM; in the test on U-937, 210 nM; in the test on DU-145 it was 380 nM; in the test with MOLT-4 it was 1200 nM; with MCF7, 4100 nM. In addition, the IC50 in the test with A549 turned out to be 2000 nM; in the test with Influenza A virus [2], 11600 nM; in the test with NCI-H1975, 5400 nM; in test [3], 6400 nM; in the test with HL-60, 180 nM; in the test on Influenza A virus [4] it was 10800 nM. The compound also returned an MIC in [1] of 6 µM (≈ 1.59 µg/mL).

Regarding `CC(=O)O[C@H]1C(=O)[C@@]2(C)[C@H]([C@H](OC(=O)c3ccccc3)[C@]3(O)C[C@H](OC(=O)[C@H](O)[C@@H](NC(=O)c4ccccc4)c4ccccc4)C(C)=C1C3(C)C)[C@]1(OC(C)=O)CO[C@@H]1C[C@@H]2O` [PACLITAXEL], the IC50 amounted to 3800 nM in the test with K562; 2100 nM in the test with U-937; 3100 nM in the test with DU-145; 2700 nM in the test with MOLT-4; 2100 nM with A549; 2800 nM with NCI-H1975. Also, the figures for the IC50 (in test [3]; in the test on HL-60) were 9800 nM and 3800 nM, respectively.

`C=C1C(=O)O[C@@H]2C[C@]3(C)[C@@H](CCC(C)O)C[C@@]4(C(=O)O[C@@H]5C[C@@H]6[C@@H](CC[C@H](C)O)[C@@H]6C[C@@H]54)[C@@H]3C[C@H]12` (stereo not given in full): the IC50 with HeLa was found to be 610 nM; with K562, 1200 nM; in the test on U-937 it was 150 nM; in the test with DU-145, 310 nM; with MOLT-4, 1300 nM; in the test on MCF7 it was 3300 nM. For the same compound, the concentration for half-maximal inhibition (IC50) with A549 was determined as 2700 nM; in the test with Influenza A virus [2], 30000 nM; with NCI-H1975, 1400 nM; in test [3], 710 nM; in the test with HL-60, 100 nM; in the test on Influenza A virus [4], 15900 nM. In test [1], this compound had an MIC of 3.7 µM (≈ 1.8 µg/mL).

On to `C=C1C(=O)O[C@H]2C[C@@H](C)[C@@H]3CC[C@H](O)[C@@]3(C)C[C@H]12` [PSEUDOGUAIANOLIDE], for which the 50% inhibitory concentration (IC50) came to 6000 nM with HeLa; 17000 nM in the test with K562; 2200 nM in the test on U-937; 3100 nM with DU-145; 5500 nM in the test with MOLT-4; 11000 nM in the test with MCF7. The IC50 was 6200 nM in the test with A549; 47300 nM in the test on Influenza A virus [2]; 13000 nM in the test on NCI-H1975; 22000 nM in test [3]; 2400 nM in the test with HL-60; 29300 nM in the test with Influenza A virus [4]. The compound also returned an MIC in test [1] of 7.6 µM (≈ 1.9 µg/mL).

For `CCOC(=O)C1=C[C@@H](OC(CC)CC)[C@H](NC(C)=O)[C@@H](N)C1` [OSELTAMIVIR], the IC50 with Influenza A virus [2] amounted to 15 nM; in the test with Influenza A virus [4] it was 25 nM.

The values above are taken from ChEMBL document CHEMBL3621040, “Dicarabrol, a new dimeric sesquiterpene from Carpesium abrotanoides L” (Bioorg Med Chem Lett, 2015).
